Patent US20010047099A1, “4-aminopicolinates and their use as herbicides” (priority 2000, published 2001)

Tests used:
Format in all cases: in vivo
[1] = tested on: yellow nutsedge (Cyperus esculentus); experiment: Postemergence herbicidal activity; conditions: Table 3; weeds in rice; rate 250 ppm
Procedure, shortened: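 Spray rate conversion: 1 ppm ≈ 1 g/Ha. The test used greenhouse seedlings (first/second true leaf) treated with a serially diluted compound spray. Control plants received carrier only. Efficacy was taken as visual injury at 2 weeks on a 0–100% scale.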

rice (Oryza sativa) = experiment: Postemergence herbicidal activity, selectivity to rice; conditions: Table 3; crop (rice); rate 250 ppm
Description: (§1) Seeds of the desired test plant species were planted in Grace-Sierra MetroMix® 306 planting mixture, which typically has a pH of 6.0 to 6.8 and an organic matter content of about 30 percent, in plastic pots with a surface area of 64 square centimeters. When required to ensure good germination and healthy plants, a fungicide treatment and/or other chemical or physical treatment was applied. The plants were grown for 7-21 days in a greenhouse with an approximate 15 hr photoperiod which was maintained at about 23-29° C. during the day and 22-28° C. during the night. Nutrients and water were added on a regular basis and supplemental lighting was provided with overhead metal halide 1000-Watt lamps as necessary. The plants were employed for testing when they reached the first or second true leaf stage.
A weighed amount, determined by the highest rate to be tested, of each test compound was placed in a 20 mL glass vial and was dissolved in 4 mL of a 97:3 v/v (volume/volume) mixture of acetone and dimethyl sulfoxide (DMSO) to obtain concentrated stock solutions. […] The concentrated stock solutions obtained were diluted with an aqueous mixture containing acetone, water, isopropyl alcohol, DMSO, Atplus 411F crop oil concentrate, and Triton X-155 surfactant in a 48.5:39:10:1.5:1.0:0.02 v/v ratio to obtain spray solutions of known concentration. The solutions containing the highest concentration to be tested were prepared by diluting 2 mL aliquots of the stock solution with 13 mL of the mixture and lower concentrations were prepared by serial dilution of the stock solution. […]
(§2) The treated plants and control plants were placed in a greenhouse as described above and watered by sub-irrigation to prevent wash-off of the test compounds. After 2 weeks the condition of the test plants as compared with that of the untreated plants was determined visually and scored on a scale of 0 to 100 percent where 0 corresponds to no injury and 100 corresponds to complete kill.

[2] = tested on: sicklepod (Cassia obtusifolia); experiment: Range & Pasture Crop Testing (postemergence track sprayer); conditions: Table 8; salts of Compound 1; dose for 80 percent control
Procedure, shortened: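 Postemergence track-sprayer application at 187 L/ha, compounds formulated in 97:3 acetone:DMSO with 0.25% X-77, five rates (X serially diluted to 1/16×). Visual percent control (0–100 scale, burn down) rated 3 weeks after treatment; GR50/GR80 derived by probit analysis.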

[3] = tested on: broadleaf dock (Rumex obtusifolia); experiment: as above; conditions: Table 9; rate 70 g/Ha; 3 weeks after treatment
[4] = tested on: common ragweed (Ambrosia artemisiifolia); experiment: as above; conditions: Table 9; rate 70 g/Ha; 3 week evaluation
[5] = tested on: crested wheatgrass (Agropyron cristatum) (grass crop); experiment: as above; conditions: Table 9, rate 70 g/Ha, 3 weeks after treatment
[6] = tested on: wheat (Triticum aestivum); experiment: Postemergence herbicidal activity, selectivity to wheat; conditions: Table 5; crop (wheat); rate 250 ppm
Description: as §1
A weighed amount, determined by the highest rate to be tested, of each test compound was placed in a 20 mL glass vial and was dissolved in 4 mL of a 97:3 v/v (volume/volume) mixture of acetone and dimethyl sulfoxide (DMSO) to obtain concentrated stock solutions. […] The concentrated stock solutions obtained were diluted with an aqueous mixture containing acetone, water, isopropyl alcohol, DMSO, Atplus 411F crop oil concentrate, and Triton X-155 surfactant in a 48.5:39:10:1.5:1.0:0.02 v/v ratio to obtain spray solutions of known concentration. The solutions containing the highest concentration to be tested were prepared by diluting 2 mL aliquots of the stock solution with 13 mL of the mixture and lower concentrations were prepared by serial dilution of the stock solution. Approximately 1.5 mL aliquots of each solution of known concentration were sprayed evenly onto each of the test plant pots using a DeVilbiss atomizer driven by compressed air pressure of 2 to 4 psi ([…]) to obtain thorough coverage of each plant. Control plants were sprayed in the same manner with the aqueous mixture. In this test an application rate of 1 ppm results in the application of approximately 1 g/Ha.
as §2

| Structure (SMILES) | post emergent evaluation - % control CYPES [1] [%] | post emergent evaluation - % control ORYZA (rice (Oryza sativa)) [%] | Post-emergent GR80 CASOB [2] [g/Ha] | Post-emergent Evaluation - % control RUMOB [3] [%] | Post-emergent Evaluation - % control AMBEL [4] [%] | Post-emergent Evaluation - % control AGRCR [5] [%] | Post-emergent Evaluation - % control TRZAS [6] [%] |
| --- | --- | --- | --- | --- | --- | --- | --- |
| Nc1cc(Cl)nc(C(=O)O)c1Cl [Compound 1, 4-Amino-3,6-dichloropyridine-2-carboxylic acid] | 75 | 10 | 11 |  |  |  |  |
| COC(=O)c1nc(Cl)cc(N)c1Cl [Compound 3, methyl 4-amino-3,6-dichloropyridine-2-carboxylate] |  |  |  | 100 | 100 | 30 |  |
| Nc1cc(Br)nc(C(=O)O)c1Cl [Compound 14, 4-Amino-6-bromo-3-chloropyridine-2-carboxylic acid] | 75 | 10 |  |  |  |  | 0 |
